From US12077503B2, “Substituted cyclic amides and their use as herbicides” (FMC CORPORATION, priority 2015, dated 2024)

Columns and labels:
Assay type in all cases: in vivo
[1] = system: giant foxtail (Setaria faberii); assay: Test A preemergence; details: Setaria faberi, pre-emergence, 240 h; for pest or weed control at 125 g/ha: 125 g ai/ha, Preemergence, visual injury rating after approximately 10 d, read-out: Foxtail, Giant plant response rating (0 to 100 scale, 0 is no effect, 100 is complete control); for pest or weed control at 500 g/ha: 500 g ai/ha, preemergence, visual injury rating about 10 d after treatment, 0 to 100 scale (0 no effect, 100 complete control), read-out: Foxtail, Giant plant response rating
Outline: (§1)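 Preemergence soil spray on seeded pots or post-emergence spray on 1–2 leaf plants, in loam–sand blend. Greenhouse ~10 d. Visual rating 0–100 against untreated plants.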

[2] = system: pigweed (Amaranthus retroflexus); assay: Test A preemergence; details: Amaranthus retroflexus, pre-emergence, 240 h; for pest or weed control at 125 g/ha: 125 g ai/ha, Preemergence, visual injury rating after approximately 10 d, read-out: Pigweed plant response rating (0 to 100 scale, 0 is no effect, 100 is complete control); for pest or weed control at 500 g/ha: 500 g ai/ha, preemergence, visual injury rating about 10 d after treatment, 0 to 100 scale (0 no effect, 100 complete control), read-out: Pigweed plant response rating
Kochia (Kochia scoparia) [3] = assay: Test A preemergence; details: Bassia scoparia, pre-emergence, 240 h; for pest or weed control at 125 g/ha: 125 g ai/ha, Preemergence, visual injury rating after approximately 10 d, read-out: Kochia plant response rating (0 to 100 scale, 0 is no effect, 100 is complete control); for pest or weed control at 500 g/ha: 500 g ai/ha, preemergence, visual injury rating about 10 d after treatment, 0 to 100 scale (0 no effect, 100 complete control), read-out: Kochia plant response rating
Outline: as §1

[4] = system: ryegrass, Italian (Italian ryegrass, Lolium multiflorum); assay: Test A preemergence; details: Lolium multiflorum, pre-emergence, 240 h; for pest or weed control at 125 g/ha: 125 g ai/ha, Preemergence, visual injury rating after approximately 10 d, read-out: Ryegrass, Italian plant response rating (0 to 100 scale, 0 is no effect, 100 is complete control); for pest or weed control at 500 g/ha: 500 g ai/ha, preemergence, visual injury rating about 10 d after treatment, 0 to 100 scale (0 no effect, 100 complete control), read-out: Ryegrass, Italian plant response rating
Outline: as §1

[5] = system: barnyardgrass (Echinochloa crus-galli); assay: Test A preemergence; details: Echinochloa crus-galli, pre-emergence, 240 h; for pest or weed control at 125 g/ha: 125 g ai/ha, Preemergence, visual injury rating after approximately 10 d, read-out: Barnyardgrass plant response rating (0 to 100 scale, 0 is no effect, 100 is complete control); for pest or weed control at 500 g/ha: 500 g ai/ha, preemergence, visual injury rating about 10 d after treatment, 0 to 100 scale (0 no effect, 100 complete control), read-out: Barnyardgrass plant response rating
Outline: as §1

[6] = system: ragweed (common ragweed, Ambrosia elatior); assay: Test A preemergence; details: Ambrosia artemisiifolia, pre-emergence, 240 h; for pest or weed control at 125 g/ha: 125 g ai/ha, Preemergence, visual injury rating after approximately 10 d, read-out: Ragweed plant response rating (0 to 100 scale, 0 is no effect, 100 is complete control); for pest or weed control at 500 g/ha: 500 g ai/ha, preemergence, visual injury rating about 10 d after treatment, 0 to 100 scale (0 no effect, 100 complete control), read-out: Ragweed plant response rating
Outline: as §1

[7] = system: giant foxtail (Setaria faberii); assay: Test A postemergence; details: Setaria faberi, post-emergence, 240 h, postemergence, approx. 10 d; for pest or weed control at 125 g/ha: 125 g ai/ha, visual injury on 0 to 100 scale (0 no effect, 100 complete control), read-out: Foxtail, Giant plant response rating; for pest or weed control at 500 g/ha: 500 g ai/ha, visual injury, 0 to 100 scale (0 no effect, 100 complete control), read-out: Plant response rating, Foxtail, Giant
Outline: as §1

[8] = system: pigweed (Amaranthus retroflexus); assay: Test A postemergence; details: Amaranthus retroflexus, post-emergence, 240 h, postemergence, approx. 10 d; for pest or weed control at 125 g/ha: 125 g ai/ha, visual injury on 0 to 100 scale (0 no effect, 100 complete control), read-out: Pigweed plant response rating
Outline: as §1

Kochia (Kochia scoparia) [9] = assay: Test A postemergence; details: Bassia scoparia, post-emergence, 240 h, postemergence, approx. 10 d; for pest or weed control at 125 g/ha: 125 g ai/ha, visual injury on 0 to 100 scale (0 no effect, 100 complete control), read-out: Kochia plant response rating; for pest or weed control at 500 g/ha: 500 g ai/ha, visual injury, 0 to 100 scale (0 no effect, 100 complete control), read-out: Plant response rating, Kochia
Outline: as §1

[10] = system: wheat (Triticum aestivum); assay: Test A postemergence; details: Triticum aestivum, post-emergence, 240 h, postemergence, approx. 10 d; for plant injury at 125 g/ha: 125 g ai/ha, visual injury on 0 to 100 scale (0 no effect, 100 complete control), read-out: Wheat plant response rating
Outline: as §1

[11] = system: blackgrass (Alopecurus myosuroides); assay: Test A postemergence; details: Alopecurus myosuroides, post-emergence, 240 h, read-out: Plant response rating, Blackgrass; for pest or weed control at 125 g/ha: 125 g ai/ha, Postemergence, visual injury after approximately 10 d, 0 to 100 scale where 0 is no effect and 100 is complete control; for pest or weed control at 500 g/ha: 500 g ai/ha, postemergence, visual injury, 0 to 100 scale (0 no effect, 100 complete control), approx. 10 d
Outline: as §1

[12] = system: ryegrass, Italian (Italian ryegrass, Lolium multiflorum); assay: Test A postemergence; details: Lolium multiflorum, post-emergence, 240 h, postemergence, approx. 10 d; for pest or weed control at 125 g/ha: 125 g ai/ha, visual injury on 0 to 100 scale (0 no effect, 100 complete control), read-out: Ryegrass, Italian plant response rating
Outline: as §1

[13] = system: Galium (catchweed bedstraw, Galium aparine); assay: Test A postemergence; details: Galium, post-emergence, 240 h, postemergence, approx. 10 d; for pest or weed control at 125 g/ha: 125 g ai/ha, visual injury on 0 to 100 scale (0 no effect, 100 complete control), read-out: Galium plant response rating; for pest or weed control at 500 g/ha: 500 g ai/ha, visual injury, 0 to 100 scale (0 no effect, 100 complete control), read-out: Plant response rating, Galium
Outline: as §1

[14] = system: barnyardgrass (Echinochloa crus-galli); assay: Test A postemergence; details: Echinochloa crus-galli, post-emergence, 240 h, read-out: Plant response rating, Barnyardgrass; for pest or weed control at 125 g/ha: 125 g ai/ha, Postemergence, visual injury after approximately 10 d, 0 to 100 scale where 0 is no effect and 100 is complete control; for pest or weed control at 500 g/ha: 500 g ai/ha, postemergence, visual injury, 0 to 100 scale (0 no effect, 100 complete control), approx. 10 d
Outline: as §1

corn (Zea mays) = assay: Test A postemergence; details: Zea mays, post-emergence, 240 h; for Corn plant response rating (crop injury, 0 = no effect, 100 = complete kill) at 125 g/ha: 125 g ai/ha, Postemergence, visual injury after approximately 10 d, 0 to 100 scale where 0 is no effect and 100 is complete control; for Corn plant response rating (crop injury, 0 = no effect, 100 = complete kill) at 500 g/ha: 500 g ai/ha, postemergence, visual injury, 0 to 100 scale (0 no effect, 100 complete control), approx. 10 d
Outline: as §1

[15] = system: ragweed (common ragweed, Ambrosia elatior); assay: Test A postemergence; details: Ambrosia artemisiifolia, post-emergence, 240 h, postemergence, approx. 10 d; for pest or weed control at 125 g/ha: 125 g ai/ha, visual injury on 0 to 100 scale (0 no effect, 100 complete control), read-out: Ragweed plant response rating
Outline: as §1

Row | SMILES | pest or weed control at 125 g/ha [1] | pest or weed control at 500 g/ha [1] | pest or weed control at 125 g/ha [2] | pest or weed control at 500 g/ha [2] | pest or weed control at 125 g/ha (Kochia (Kochia scoparia) [3]) | pest or weed control at 500 g/ha (Kochia (Kochia scoparia) [3]) | pest or weed control at 125 g/ha [4] | pest or weed control at 500 g/ha [4] | pest or weed control at 125 g/ha [5] | pest or weed control at 500 g/ha [5] | pest or weed control at 125 g/ha [6] | pest or weed control at 500 g/ha [6] | pest or weed control at 125 g/ha [7] | pest or weed control at 500 g/ha [7] | pest or weed control at 125 g/ha [8] | pest or weed control at 125 g/ha (Kochia (Kochia scoparia) [9]) | pest or weed control at 500 g/ha (Kochia (Kochia scoparia) [9]) | plant injury at 125 g/ha [10] | pest or weed control at 125 g/ha [11] | pest or weed control at 500 g/ha [11] | other results
1 | Cc1ccc([C@H]2CNC(=O)[C@@H]2C(=O)Nc2ccccc2S(C)(=O)=O)cc1C [Compound 1037] | 20% | 80% | 0% | 20% | 40% | 90% | 50% | 70% | 80% | 90% | 0% | 60% | 0% | 30% | 0% | 0% | 20% | 0% | 0% | 20% | pest or weed control at 500 g/ha ([8]; 500 g ai/ha, visual injury, 0 to 100 scale (0 no effect, 100 complete control), read-out: Plant response rating, Pigweed): 0%; plant injury at 500 g/ha ([10]; 500 g ai/ha, visual injury, 0 to 100 scale (0 no effect, 100 complete control), read-out: Plant response rating, Wheat): 30%; pest or weed control at 125 g/ha [12]: 0%; pest or weed control at 500 g/ha ([12]; 500 g ai/ha, visual injury, 0 to 100 scale (0 no effect, 100 complete control), read-out: Plant response rating, Ryegrass, Italian): 50%; pest or weed control at 125 g/ha [13]: 40%; pest or weed control at 500 g/ha [13]: 60%; pest or weed control at 125 g/ha [14]: 70%; pest or weed control at 500 g/ha [14]: 90%; Corn plant response rating (crop injury, 0 = no effect, 100 = complete kill) at 125 g/ha (corn (Zea mays)): 0%; Corn plant response rating (crop injury, 0 = no effect, 100 = complete kill) at 500 g/ha (corn (Zea mays)): 30%; pest or weed control at 125 g/ha [15]: 20%; pest or weed control at 500 g/ha ([15]; 500 g ai/ha, visual injury, 0 to 100 scale (0 no effect, 100 complete control), read-out: Plant response rating, Ragweed): 30%
2 | Cc1ccc([C@H]2CN(C)C(=O)[C@@H]2C(=O)Nc2cccc(F)c2F)cc1C [Compound 1039] | 90% | 100% | 20% | 40% | 80% | 100% | 60% | 80% | 90% | 100% | 10% | 90% | 90% | 90% | 0% | 40% | 60% | 50% | 30% | 40% | pest or weed control at 125 g/ha [12]: 50%; pest or weed control at 125 g/ha [13]: 40%; pest or weed control at 500 g/ha [13]: 60%; pest or weed control at 125 g/ha [14]: 90%; pest or weed control at 500 g/ha [14]: 90%; Corn plant response rating (crop injury, 0 = no effect, 100 = complete kill) at 125 g/ha (corn (Zea mays)): 70%; Corn plant response rating (crop injury, 0 = no effect, 100 = complete kill) at 500 g/ha (corn (Zea mays)): 70%; pest or weed control at 125 g/ha [15]: 10%
